ChEMBL document CHEMBL1201862, “PubChem BioAssay data set” (2004)
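Test compounds were applied to cells in 96-well plates for 48 hours at 5 doses. Abbreviation: GI50, concentration required for 50% inhibition of growth.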 The source made the active and inactive calls. No stated cut-off is given here; in the data, active = GI50 up to about 1.1 µM and inactive = higher.

What was measured:
Test in all cases: NCI anticancer screen, dose series, 48 h
786-0 = tested on: 786-0
A549 = tested on: A549
COLO 205 = tested on: COLO 205
HL-60 = tested on: HL-60
HOP-62 = tested on: HOP-62
HOP-92 = tested on: HOP-92
IGROV-1 = tested on: IGROV-1
K562 = tested on: K562
Malme-3M = tested on: Malme-3M
NCI-H226 = tested on: NCI-H226
NCI-H23 = tested on: NCI-H23
OVCAR-8 = tested on: OVCAR-8
SF-268 = tested on: SF-268
SF-539 = tested on: SF-539
SK-MEL-2 = tested on: SK-MEL-2
SK-OV-3 = tested on: SK-OV-3
SNB-75 = tested on: SNB-75
U-251 = tested on: U-251
UACC-62 = tested on: UACC-62
SN12C = tested on: SN12C

## Cc1cc(C)c(S(=O)(=O)N2CCCN(S(=O)(=O)c3c(C)cc(C)cc3C)OCCCON(S(=O)(=O)c3c(C)cc(C)cc3C)CCCN(S(=O)(=O)c3c(C)cc(C)cc3C)OCCCO2)c(C)c1
786-0
  GI50: > 100 µM (inactive)
A549
  GI50: > 100 µM (inactive)
COLO 205
  GI50: > 100 µM (inactive)
HL-60
  GI50: 46.6 µM (inactive)
HOP-62
  GI50: > 100 µM (inactive)
HOP-92
  GI50: 36.1 µM (inactive)
IGROV-1
  GI50: > 100 µM (inactive)
K562
  GI50: > 100 µM (inactive)
Malme-3M
  GI50: > 100 µM (inactive)
NCI-H226
  GI50: > 100 µM (inactive)
NCI-H23
  GI50: > 100 µM (inactive)
OVCAR-8
  GI50: > 100 µM (inactive)
SF-268
  GI50: > 100 µM (inactive)
SF-539
  GI50: > 100 µM (inactive)
SK-MEL-2
  GI50: > 100 µM (inactive)
SK-OV-3
  GI50: > 100 µM (inactive)
SNB-75
  GI50: 70.3 µM (inactive)
U-251
  GI50: > 100 µM (inactive)
UACC-62
  GI50: > 100 µM (inactive)

## c1ccc(COc2cccc3cccnc23)cc1
786-0
  GI50: > 100 µM (inactive)
A549
  GI50: > 100 µM (inactive)
COLO 205
  GI50: > 100 µM (inactive)
HL-60
  GI50: 19.9 µM (inactive)
HOP-62
  GI50: > 100 µM (inactive)
HOP-92
  GI50: 28.4 µM (inactive)
IGROV-1
  GI50: 85.7 µM (inactive)
K562
  GI50: 55 µM (inactive)
Malme-3M
  GI50: 48.4 µM (inactive)
NCI-H226
  GI50: > 100 µM (inactive)
NCI-H23
  GI50: 44 µM (inactive)
OVCAR-8
  GI50: > 100 µM (inactive)
SF-268
  GI50: 28.4 µM (inactive)
SF-539
  GI50: > 100 µM (inactive)
SK-OV-3
  GI50: > 100 µM (inactive)
SN12C
  GI50: > 100 µM (inactive)
SNB-75
  GI50: 67.9 µM (inactive)
UACC-62
  GI50: 95.9 µM (inactive)

## Cc1ccc(S(=O)(=O)Nn2c(S)c(C#N)c(-c3ccc(Cl)cc3)c(C#N)c2=O)cc1
786-0
  GI50: 32.6 µM (inactive)
A549
  GI50: 43.7 µM (inactive)
COLO 205
  GI50: 35.6 µM (inactive)
HL-60
  GI50: 23 µM (inactive)
HOP-92
  GI50: 59 µM (inactive)
IGROV-1
  GI50: 20.6 µM (inactive)
K562
  GI50: 38.6 µM (inactive)
Malme-3M
  GI50: 30.8 µM (inactive)
NCI-H226
  GI50: 16.4 µM (inactive)
NCI-H23
  GI50: 30 µM (inactive)
OVCAR-8
  GI50: 22 µM (inactive)
SF-539
  GI50: 19.6 µM (inactive)
SK-MEL-2
  GI50: 56.8 µM (inactive)
SK-OV-3
  GI50: 61 µM (inactive)
SN12C
  GI50: 25.7 µM (inactive)
SNB-75
  GI50: 33.8 µM (inactive)
U-251
  GI50: 22.2 µM (inactive)
UACC-62
  GI50: 27.7 µM (inactive)

## COc1cc2c(c(C)c1O)[C@H]1COc3ccccc3[C@H]1O2
786-0
  GI50: 16.6 µM (inactive)
A549
  GI50: 13.2 µM (inactive)
COLO 205
  GI50: 18.7 µM (inactive)
HL-60
  GI50: 2.94 µM (inactive)
HOP-62
  GI50: 6.59 µM (inactive)
HOP-92
  GI50: 19.5 µM (inactive)
IGROV-1
  GI50: 14.5 µM (inactive)
K562
  GI50: 4.29 µM (inactive)
Malme-3M
  GI50: 22.1 µM (inactive)
NCI-H226
  GI50: 6.25 µM (inactive)
NCI-H23
  GI50: 13.2 µM (inactive)
OVCAR-8
  GI50: 20.9 µM (inactive)
SF-268
  GI50: 15.2 µM (inactive)
SF-539
  GI50: 8.41 µM (inactive)
SK-MEL-2
  GI50: 3.16 µM (inactive)
SK-OV-3
  GI50: 31.8 µM (inactive)
SNB-75
  GI50: 3.95 µM (inactive)
U-251
  GI50: > 10 µM (inactive)
UACC-62
  GI50: 7.89 µM (inactive)

## CO[C@@H](c1ccccc1)[C@H](O)[C@@](O)(c1ccccc1)P(=O)(OC)OC
786-0
  GI50: > 100 µM (inactive)
A549
  GI50: > 100 µM (inactive)
COLO 205
  GI50: > 100 µM (inactive)
HL-60
  GI50: > 100 µM (inactive)
HOP-92
  GI50: 29.8 µM (inactive)
IGROV-1
  GI50: 48.2 µM (inactive)
K562
  GI50: > 100 µM (inactive)
Malme-3M
  GI50: 36.6 µM (inactive)
NCI-H226
  GI50: > 100 µM (inactive)
NCI-H23
  GI50: > 100 µM (inactive)
OVCAR-8
  GI50: > 100 µM (inactive)
SF-268
  GI50: > 100 µM (inactive)
SF-539
  GI50: > 100 µM (inactive)
SK-MEL-2
  GI50: > 100 µM (inactive)
SK-OV-3
  GI50: > 100 µM (inactive)
SN12C
  GI50: > 100 µM (inactive)
SNB-75
  GI50: > 100 µM (inactive)
U-251
  GI50: > 100 µM (inactive)
UACC-62
  GI50: > 100 µM (inactive)

## CCCc1nc(NC#N)nc(C(=O)Nc2ccccc2)c1CC
786-0
  GI50: > 100 µM (inactive)
A549
  GI50: > 100 µM (inactive)
HL-60
  GI50: > 100 µM (inactive)
HOP-62
  GI50: > 100 µM (inactive)
HOP-92
  GI50: > 100 µM (inactive)
IGROV-1
  GI50: > 100 µM (inactive)
K562
  GI50: > 100 µM (inactive)
Malme-3M
  GI50: > 100 µM (inactive)
NCI-H226
  GI50: > 100 µM (inactive)
NCI-H23
  GI50: > 100 µM (inactive)
OVCAR-8
  GI50: > 100 µM (inactive)
SF-268
  GI50: > 100 µM (inactive)
SF-539
  GI50: > 100 µM (inactive)
SK-MEL-2
  GI50: > 100 µM (inactive)
SN12C
  GI50: > 100 µM (inactive)
SNB-75
  GI50: > 100 µM (inactive)
U-251
  GI50: > 100 µM (inactive)
UACC-62
  GI50: > 100 µM (inactive)

## COc1ccc(/C(C)=C2\CCCN(Cc3ccccc3)C2)cc1
786-0
  GI50: 19.2 µM (inactive)
A549
  GI50: 32 µM (inactive)
COLO 205
  GI50: 17.5 µM (inactive)
HL-60
  GI50: 23.2 µM (inactive)
HOP-62
  GI50: 18.3 µM (inactive)
HOP-92
  GI50: 17.7 µM (inactive)
IGROV-1
  GI50: 28.2 µM (inactive)
K562
  GI50: 24 µM (inactive)
Malme-3M
  GI50: 19.2 µM (inactive)
NCI-H226
  GI50: 21.5 µM (inactive)
NCI-H23
  GI50: 25.8 µM (inactive)
OVCAR-8
  GI50: 18.3 µM (inactive)
SF-268
  GI50: 17.4 µM (inactive)
SF-539
  GI50: 15.8 µM (inactive)
SK-MEL-2
  GI50: 19.1 µM (inactive)
SK-OV-3
  GI50: 29.9 µM (inactive)
SNB-75
  GI50: 24.2 µM (inactive)
U-251
  GI50: 19.6 µM (inactive)
UACC-62
  GI50: 19.8 µM (inactive)

## COc1ccc(C2=Nc3c(nc(OC)[nH]c3=O)NC(c3ccccc3)C2)cc1 (configuration not stated)
786-0
  GI50: 27.6 µM (inactive)
A549
  GI50: 34.4 µM (inactive)
COLO 205
  GI50: 24.6 µM (inactive)
HL-60
  GI50: 19.3 µM (inactive)
HOP-62
  GI50: 41.5 µM (inactive)
HOP-92
  GI50: 32.3 µM (inactive)
IGROV-1
  GI50: 30.1 µM (inactive)
K562
  GI50: 25.2 µM (inactive)
Malme-3M
  GI50: > 100 µM (inactive)
NCI-H226
  GI50: 36.6 µM (inactive)
NCI-H23
  GI50: 29.6 µM (inactive)
OVCAR-8
  GI50: 21.4 µM (inactive)
SF-539
  GI50: 28.1 µM (inactive)
SK-MEL-2
  GI50: 25.7 µM (inactive)
SN12C
  GI50: 23.2 µM (inactive)
SNB-75
  GI50: 12.5 µM (inactive)
U-251
  GI50: 24.8 µM (inactive)
UACC-62
  GI50: 42.8 µM (inactive)

## Nc1ccc(/C=C/c2ccnc3ccccc23)cc1
786-0
  GI50: 18.6 µM (inactive)
A549
  GI50: 19.4 µM (inactive)
COLO 205
  GI50: 22.9 µM (inactive)
HL-60
  GI50: 3.24 µM (inactive)
HOP-62
  GI50: 15.3 µM (inactive)
HOP-92
  GI50: 20.3 µM (inactive)
IGROV-1
  GI50: 28.2 µM (inactive)
K562
  GI50: 12.7 µM (inactive)
Malme-3M
  GI50: 30.3 µM (inactive)
NCI-H226
  GI50: 17.7 µM (inactive)
NCI-H23
  GI50: 20 µM (inactive)
OVCAR-8
  GI50: 21.8 µM (inactive)
SF-268
  GI50: 16.5 µM (inactive)
SF-539
  GI50: 20 µM (inactive)
SK-MEL-2
  GI50: 17.7 µM (inactive)
SNB-75
  GI50: 15.9 µM (inactive)
U-251
  GI50: 16.8 µM (inactive)
UACC-62
  GI50: 23.4 µM (inactive)

## CCN(CC)CCN(C(=O)C(C)(C)C)c1ccccc1N
786-0
  GI50: > 100 µM (inactive)
A549
  GI50: > 100 µM (inactive)
HL-60
  GI50: > 100 µM (inactive)
HOP-62
  GI50: > 100 µM (inactive)
HOP-92
  GI50: > 100 µM (inactive)
IGROV-1
  GI50: > 100 µM (inactive)
K562
  GI50: > 100 µM (inactive)
Malme-3M
  GI50: > 100 µM (inactive)
NCI-H226
  GI50: > 100 µM (inactive)
NCI-H23
  GI50: > 100 µM (inactive)
OVCAR-8
  GI50: > 100 µM (inactive)
SF-268
  GI50: > 100 µM (inactive)
SF-539
  GI50: > 100 µM (inactive)
SK-OV-3
  GI50: > 100 µM (inactive)
SN12C
  GI50: > 100 µM (inactive)
SNB-75
  GI50: > 100 µM (inactive)
U-251
  GI50: > 100 µM (inactive)
UACC-62
  GI50: > 100 µM (inactive)

## O=C(/C=C\c1ccsc1)c1ccccc1
786-0
  GI50: 7.21 µM (inactive)
COLO 205
  GI50: 16.2 µM (inactive)
HL-60
  GI50: 0.182 µM (active)
HOP-62
  GI50: 16.1 µM (inactive)
HOP-92
  GI50: 17.6 µM (inactive)
IGROV-1
  GI50: 6.9 µM (inactive)
K562
  GI50: 4 µM (inactive)
NCI-H226
  GI50: 16.5 µM (inactive)
NCI-H23
  GI50: 5.7 µM (inactive)
OVCAR-8
  GI50: 8.99 µM (inactive)
SF-268
  GI50: 6.9 µM (inactive)
SF-539
  GI50: 7.06 µM (inactive)
SK-MEL-2
  GI50: 16.7 µM (inactive)
SK-OV-3
  GI50: 17.1 µM (inactive)
SN12C
  GI50: 12 µM (inactive)
SNB-75
  GI50: 10.1 µM (inactive)
U-251
  GI50: 3.78 µM (inactive)
UACC-62
  GI50: 12.2 µM (inactive)
